The text below walks through data of patent US20120220600A1, “N-Oxide of 3-(2,6-dichloro-3,5-dimethoxy-phenyl) -1--1-methyl-urea” (priority 2009, published 2012).

Values after ≈ are worked out from the molar mass of the structure shown.

A short description of data set [1]: In vitro metabolic stability in human liver microsomes. In kind it is in vitro ADME. Conditions: for CLint Rank: 1 μM. The protocol:
(§1) The metabolism of drugs occurs mainly in the liver, which contains a wide variety of metabolic enzymes at concentrations higher than those observed in other organs. Metabolic stability or clearance (CL), particularly hepatic clearance (CLh), is a factor in determining drug concentration in blood. Generally, the higher the metabolic stability of a compound is, the lower the clearance of the compound.
(§2) The metabolic stability of each of Compounds 1 and 2 were determined at a concentration of 1 μM in mouse, rat, dog, monkey and human hepatic microsomal preparations. The compound tested, microsomal protein, and co-factors were combined, in duplicate, and incubated under appropriate conditions. Aliquots were removed at 0, 10 and 30 min, centrifuged and the supernatants analyzed by LC/MS/MS. Based on the percentage of the test compound remaining relative to the 0 min time point, the in vitro elimination rate constant, in vitro half-life (t1/2) and in vitro intrinsic clearance (CLint) parameters were calculate which allow for predicting the CLh values.
On the technique in general: Liver microsomes are a subcellular fraction often used to study metabolism.

A short description of data set [2]: In vitro metabolic stability in monkey liver microsomes. In kind it is in vitro ADME. The settings on record: for microsomal CLint at 1 μM: monkey, liver microsomes. The method, then: as §1, §2
Data set [3] in a line: In vitro metabolic stability in rat liver microsomes. Format: in vitro ADME. The settings on record: for microsomal CLint at 1 μM: rat, liver microsomes. The method, then:
as §1, §2

The target in the next data set is T1, hERG channels (Homo sapiens, UniProt Q12809).
T1 construct: expressed in transfected cells; host or cells: HEK293 (stably transfected), membrane preparation
T1 sequence (Q12809 whole entry): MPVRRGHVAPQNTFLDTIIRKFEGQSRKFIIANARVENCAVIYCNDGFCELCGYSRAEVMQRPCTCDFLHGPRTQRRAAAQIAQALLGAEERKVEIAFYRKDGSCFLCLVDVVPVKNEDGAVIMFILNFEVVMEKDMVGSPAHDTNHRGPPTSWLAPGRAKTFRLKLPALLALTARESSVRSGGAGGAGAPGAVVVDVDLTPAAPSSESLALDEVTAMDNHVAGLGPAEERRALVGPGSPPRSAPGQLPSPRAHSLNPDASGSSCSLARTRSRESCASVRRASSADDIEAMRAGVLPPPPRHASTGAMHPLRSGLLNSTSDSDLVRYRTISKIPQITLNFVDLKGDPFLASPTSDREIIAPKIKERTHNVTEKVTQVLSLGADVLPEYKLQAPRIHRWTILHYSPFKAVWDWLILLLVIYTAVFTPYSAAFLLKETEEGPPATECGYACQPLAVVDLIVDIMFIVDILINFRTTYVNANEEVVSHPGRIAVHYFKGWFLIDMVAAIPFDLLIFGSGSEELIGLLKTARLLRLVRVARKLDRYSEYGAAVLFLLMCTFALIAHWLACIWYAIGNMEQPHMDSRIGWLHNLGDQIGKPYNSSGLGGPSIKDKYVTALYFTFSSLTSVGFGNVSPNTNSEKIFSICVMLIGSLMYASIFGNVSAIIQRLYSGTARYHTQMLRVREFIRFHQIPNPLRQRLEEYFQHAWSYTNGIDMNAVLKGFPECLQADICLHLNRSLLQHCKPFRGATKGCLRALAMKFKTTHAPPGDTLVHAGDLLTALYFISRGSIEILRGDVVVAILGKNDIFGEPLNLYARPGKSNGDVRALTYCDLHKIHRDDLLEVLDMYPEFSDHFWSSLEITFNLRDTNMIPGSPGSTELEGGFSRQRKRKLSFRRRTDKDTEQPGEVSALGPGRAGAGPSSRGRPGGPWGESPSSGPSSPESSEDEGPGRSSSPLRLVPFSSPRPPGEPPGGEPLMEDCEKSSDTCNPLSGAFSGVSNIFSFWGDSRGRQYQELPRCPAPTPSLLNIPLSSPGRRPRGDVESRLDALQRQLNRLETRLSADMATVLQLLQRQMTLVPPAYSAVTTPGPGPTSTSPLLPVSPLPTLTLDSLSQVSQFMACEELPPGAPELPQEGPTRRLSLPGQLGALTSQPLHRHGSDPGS
Briefly: hERG radioligand binding assay ([3H]dofetilide competition). The settings on record: [3H]dofetilide binding, HEK293 cell membranes stably transfected with hERG. The method, then: The ability of Compounds 1 and 2 to inhibit the hERG (potassium channel) activity was tested using a radioligand binding assay in which test compounds competed for [^3H]dofetilide binding to a membrane preparation of HEK293 cell membranes stably transfected with hERG channels.
A general note: Block of hERG is tested as a sign of cardiac risk.

Data set [4] in a line: Solubility in buffer (pH 1). In kind it is physicochemical. The settings on record: pH 1, aqueous buffer. The source says: (§3) Certain physicochemical properties of the compounds, as measured, are provided below: […]
A short description of data set [5]: In vitro metabolic stability in mouse liver microsomes. The settings on record: for microsomal CLint at 1 μM: mouse, liver microsomes. In kind it is in vitro ADME. The method, then:
as §1, §2

A short description of data set [6]: Ionization constants (pKa1/pKa2). Format: physicochemical. Conditions: ionization constant for acidity.
Source text: as §3

Another data set deals with Caco-2 cell monolayers. Kind of data set: Permeability across Caco-2 cell monolayers. Format: in vitro ADME, human. The settings on record: for Mechanism: Caco-2, based on B-A/A-B and clogP; for Permeability Ranking: Caco-2, based on Papp A-B. The method, then:
(§4) The permeability of Compounds 1 and 2 across the intestinal barrier and the involvement of drug efflux transporters such as P-glycoprotein (P-gp, MDR-1) were assessed in vitro using the Caco-2 cell line. […] Caco-2 cells were seeded on PET (polyethylene terephthalate) filters in a 96 well format and cultured for 18-25 days to develop monolayers. Test compound solutions (10 μM in transport buffer) were added to either the apical (A) or basolateral (B) side of the Caco-2 cell monolayer to measure the membrane permeability from the A to B compartments [Papp(A-B)] or from the B to A compartments [Papp(B-A]. The assay was carried out in HBSS (Hank's Balanced Salts) buffer, pH 7.4 (for both sides) for 120 min at 37° C. Samples were taken from apical or basolateral compartments at scheduled times (0 min and 120 min) and quantified by LC/MS/MS. The results are presented in Table 4.

Data set [7] is described as follows: Permeability across Caco-2 cell monolayers. Format: in vitro ADME, human. The settings on record: human, Caco-2, 10 μM, pH 7.4, 120 min; for Papp A→B at 120 min, 10 μM / Papp B→A at 120 min, 10 μM: 37° C.; for Papp A→B at 120 min, 10 μM: apical to basolateral; for Papp B→A at 120 min, 10 μM: basolateral to apical; for efflux ratio at 120 min, 10 μM: read-out: Papp B-A/A-B. The protocol: as §4
Background: Caco-2 monolayers are a common model of the intestinal barrier.

The nature of data set [8]: In vitro metabolic stability in dog liver microsomes. In kind it is in vitro ADME. Conditions: for microsomal CLint at 1 μM: dog, liver microsomes. The method, then:
as §1, §2

With `CC[N+]1([O-])CCN(c2ccc(Nc3cc(N(C)C(=O)Nc4c(Cl)c(OC)cc(OC)c4Cl)ncn3)cc2)CC1` [Compound 1, N-Oxide of 3-(2,6-Dichloro-3,5-dimethoxy-phenyl)-1-{6-[4-(4-ethyl-piperazin-1-yl)-phenylamino]-pyrimidin-4-yl}-1-methyl-urea], the half-life (usually the time needed for the level to fall by half in the phase considered) at 1 μM in data set [1] worked out at 37.4 min; in data set [2] it was 35.7 min; in data set [3], 46.8 min; in [5], 55.2 min; in data set [8] it was 30.1 min. In addition, the microsomal CLint at 1 μM in [1] stood at 37.1 µL/min/mg; in data set [2] (read-out: CLint), 38.9 µL/min/mg; in [3] (read-out: CLint) it was 29.6 µL/min/mg; in data set [5] (read-out: CLint), 25.1 µL/min/mg; in data set [8] (read-out: CLint), 46.1 µL/min/mg. Also, the “CLint Rank” value in data set [1], in [2] (1 μM), in data set [3] (1 μM), in [5] (1 μM) and in data set [8] (1 μM) was “low” each time. For the same molecule, the IC50 (in general, the concentration at which inhibition is half-maximal) on hERG channels is 10.2 µM. For the same molecule, the solubility – broadly, how much of the substance goes into solution per volume – in [4] turned out to be 700 µM (≈ 404 µg/mL). This molecule came in with a pKa1 in [6] of 4.5. The molecule further registered a pKa2 in data set [6] of 3.2. Moreover, the Mechanism entry with Caco-2 cell monolayers is “Efflux (Efflux: B-A/A-B ≧3)”. Moreover, the “Permeability Ranking” value with Caco-2 cell monolayers was “Low”. Further, the Papp A→B (as a rule, how fast a substance crosses the layer from the apical side) at 120 min, 10 μM in data set [7] was found to be 4.7 nm/s. Further, in data set [7], the basolateral-to-apical permeability (Papp B→A) (commonly the apparent permeability from the basolateral to the apical side of a cell layer) at 120 min, 10 μM was found to be 95.1 nm/s. Besides, the efflux ratio at 120 min, 10 μM in [7] worked out at 20.2.
For `CCN1CCN(c2ccc(Nc3cc(N(C)C(=O)Nc4c(Cl)c(OC)cc(OC)c4Cl)ncn3)cc2)CC1` [Compound 2, 3-(2,6-Dichloro-3,5-dimethoxy-phenyl)-1-{6-[4-(4-ethyl-piperazin-1-yl)-phenylamino]-pyrimidin-4-yl}-1-methyl-urea], the half-life at 1 μM came out at 35.2 min in data set [1]; 3.8 min in data set [2]; 15.4 min in data set [3]; 10.3 min in [5]; 3.5 min in data set [8]. The microsomal CLint at 1 μM is 39.4 µL/min/mg in data set [1]; 364 µL/min/mg in [2] (read-out: CLint); more than 150 µL/min/mg in [2] (read-out: CLint Rank); 90.3 µL/min/mg in [3] (read-out: CLint); 50 to 150 µL/min/mg in data set [3] (read-out: CLint Rank); 134 µL/min/mg in data set [5] (read-out: CLint). Moreover, the microsomal CLint at 1 μM in data set [5] (read-out: CLint Rank) is 50 to 150 µL/min/mg; in data set [8] (read-out: CLint), 395 µL/min/mg; in data set [8] (read-out: CLint Rank), more than 150 µL/min/mg. Also, the “CLint Rank” value in [1] is “low”. Moreover, the half-inhibitory concentration (IC50) on hERG channels is 3 µM. The molecule also gave a solubility in data set [4] of 2000 µM (≈ 1120 µg/mL). In addition, the pKa1 in [6] is 8.2. The molecule also showed a pKa2 in data set [6] of 3.4. Further, in the data set on Caco-2 cell monolayers, the Mechanism result was “Passive”. Further, in the data set with Caco-2 cell monolayers, the “Permeability Ranking” value was “Medium”. Further, the apparent permeability from apical to basolateral (Papp A→B) at 120 min, 10 μM in data set [7] was 16.9 nm/s. The same molecule registered an apparent permeability from basolateral to apical (Papp B→A) at 120 min, 10 μM in data set [7] of 15.9 nm/s. For the same molecule, in [7], the efflux ratio at 120 min, 10 μM stood at 0.94.
